We go through five substances from publication PMC12154031, “Screening and Validation: AI-Aided Discovery of Dipeptidyl Peptidase-4 Inhibitory Peptides from Hydrolyzed Rice Proteins” (Foods, 2025).

Experiment [1] concerns the target T1, DPP-4 (Homo sapiens, UniProt P27487).
T1 construct: purchased Adamas (Shanghai Adamas Reagent Co., Ltd., Shanghai, China)
In words: DPP-IV-inhibitory activity, Gly-Pro-pNA substrate. It is filed as biochemical. The following applies: 37 °C, 15 min; for IC50: Tris–HCl 20 mM pH 8.0, substrate Gly-Pro-pNA 1 mM (50 µL), 0.05 mg/mL DPP-4 (10 µL), peptide in ddH2O, dark, absorbance 405 nm, triplicate, four-parameter logistic fit. As for the experimental part:
The assay method for measuring the peptide inhibition of DPP-4 was based on the combination of two established protocols: the peptides were dissolved in ddH2O to prepare a gradient of concentrations and the DPP-4 enzyme was diluted in Tris–HCl (20 mM, pH 8.0). In a 96-well plate, 30 µL ddH2O, 10 µL peptide solution, 50 µL substrate (1 mM), and 10 µL DPP-4 enzyme (0.05 mg/mL) were added sequentially. Each peptide concentration was tested in triplicate and incubated at 37 °C in the dark for 15 min, and then 100 µL of 0.1 M NaHCO3 solution was added to stop the reaction. The absorbance at 405 nm was measured on a microplate reader, and the percent inhibition of DPP-4 was calculated at each concentration. The IC50 values for the four peptides were determined by fitting the dose–response curves with the log peptide concentration on the x-axis and the DI (%) on the y-axis. The DPP-IV-inhibition (DI) was calculated as follows:(8) DI%=(1−A405peptide−A405buffer/A405positive control−A405negtive control)×[…] where A405 (peptide) represents the optical density (at 405 nm) of the enzyme (DPP-IV) in the presence of the substrate (Gly-Pro-p-nitroanilide) and inhibitor (inhibitory peptide); A405 (buffer) represents the optical density of ddH2O; A405 (positive reaction) represents the optical density of the enzyme and the substrate in the absence of inhibitor; and A405 (negative reaction) represents the optical density of the enzyme in the absence of the substrate and inhibitor.
Origin 2024 was used to sort out the physical and chemical property data and create heatmaps to visualize the correlation between the peptide activity, the docking energy, and the physicochemical properties. GraphPad Prism 10 was used to perform non-linear regression of the DPP-4 percent inhibition versus the log[concentration]. The differences between the IC50 values of DPP-IV were subjected to the ordinary one-way ANOVA test. A p-value < 0.05 was considered significant. Other images were created by Python 3.13.2 and Adobe Illustrator 2022. We evaluated Section 2 of the article using the TRIPOD (Transparent Reporting of a multivariable prediction model for Individual Prognosis Or Diagnosis) framework from the EQUATOR Network.

In experiment [2] the target is T1, DPP-4. Further details: method as in PMID 29963014, PMID 6427168. As to conditions: known DPP-4 inhibitory peptide, positive control; ref [41],[42]; cited from earlier work.

Like-named read-outs stand apart in the source and are kept apart here. No end group written: not given here.

Usually IC50 stands for the concentration at which inhibition is half-maximal.

T1 sequence (P27487 whole entry): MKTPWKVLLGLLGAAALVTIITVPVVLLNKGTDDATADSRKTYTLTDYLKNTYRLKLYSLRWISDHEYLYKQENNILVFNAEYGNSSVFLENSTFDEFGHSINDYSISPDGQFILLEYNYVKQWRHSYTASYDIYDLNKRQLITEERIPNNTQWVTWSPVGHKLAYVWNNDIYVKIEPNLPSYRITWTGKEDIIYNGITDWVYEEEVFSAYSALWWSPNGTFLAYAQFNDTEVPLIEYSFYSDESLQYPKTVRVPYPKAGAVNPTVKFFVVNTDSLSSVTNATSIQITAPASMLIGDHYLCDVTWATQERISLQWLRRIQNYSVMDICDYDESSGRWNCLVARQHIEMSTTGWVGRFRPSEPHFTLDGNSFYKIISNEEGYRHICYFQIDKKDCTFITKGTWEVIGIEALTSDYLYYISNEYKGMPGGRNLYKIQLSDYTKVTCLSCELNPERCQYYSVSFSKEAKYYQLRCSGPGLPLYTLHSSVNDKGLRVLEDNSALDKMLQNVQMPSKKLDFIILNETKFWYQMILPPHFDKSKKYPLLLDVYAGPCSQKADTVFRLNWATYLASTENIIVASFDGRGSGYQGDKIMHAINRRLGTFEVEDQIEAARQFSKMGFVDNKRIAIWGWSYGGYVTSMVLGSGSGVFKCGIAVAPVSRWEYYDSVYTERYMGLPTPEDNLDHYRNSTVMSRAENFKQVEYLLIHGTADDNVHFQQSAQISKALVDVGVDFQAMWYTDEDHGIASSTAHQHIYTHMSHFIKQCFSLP

As to “CPPPPAAY [rice-derived proline-rich peptide, synthesized, purity of 95%]”, the IC50 entry in experiment [1] is reported as “could not be determined”. Further, the “DPP-4 inhibition (DI%), result in words” value in experiment [1] (within the tested concentration range, pH 8.0, n = 3) is reported as “showed no inhibitory effect”.

For PPPPPY [PPPPPY], the IC50 in experiment [1] (read-out: IC50) turned out to be 153 ± 5.7 µM.

Turning to PPPPPPPPA [PPPPPPPPA], in experiment [1] (read-out: IC50), the IC50 came to 177 ± 6 µM.

For PPPSPPPV [PPPSPPPV], in experiment [1] (read-out: IC50), the IC50 worked out at 216 ± 4.5 µM.

Consider Diprotin A [IPI], for which, in experiment [2], the IC50 is around 3.5 µM.
